Test results from patent publication US20250304928A1, “AN OMEGA-TRANSAMINASE MUTANT BASED ON […] SEQUENCE RECONSTRUCTION” (priority 2021, published 2025).

How the values were obtained:
[1] = target: Aspergillus terreus ω-transaminase, wild type (WT-AT), SEQ ID NO. 2 (Aspergillus terreus, UniProt Q0C8G1); test: Enzyme kinetic parameters of wild type ω-transaminase (WT-AT); assay type: biochemical; conditions: PBS 50 mM, pH 8.0, 0.01 mM PLP
Experimental: The wild-type ω-transaminase from Aspergillus terreus has an amino acid sequence as shown in SEQ ID NO. 2, and has a gene sequence as shown in SEQ ID NO. 1.
(§1) The enzyme activity of wild type and mutant ω-transaminase at different concentrations was determined by enzyme activity assay. The reaction rates V for different substrates as well as different substrate concentrations [S] were brought into the Michaelis-Menten equation V=Vmax×[S]/(Km+[S]), nonlinear curve fit was performed using Origin 8.0 software, and the enzyme kinetic parameters Km and Vmax were calculated for wild type and mutants; the conversion number kcat and catalytic efficiency kcat/Km were calculated for wild type and mutants from the equation kcat=Vmax/[E], where [E] was the molar concentration of the enzyme.

[2] = target: T1, Aspergillus terreus ω-transaminase mutant Ancata-101 (D5E-A12Q-I17V-S20A-T21S-E22A-T23S-A42H-I77L-T78S-T85S-L87M-R90K-D96E-Q97E-E104D-T130S-R131K-D134E-I135L-13 (Aspergillus terreus, UniProt Q0C8G1, A12Q/A174S/A195S/A246V/A313P/A42H/D134E/D153E/D5E/D96E/E104D/E22A/E248R/E323S/F250N/F258V/G292D/H210N/I135L/I175M/I17V/I295V/I77L/INS138N/INS325KKSG/L87M/M288K/N245D/N322E/N325S/Q236E/Q294K/Q97E/R131K/R266Q/R324A/R90K/S20A/T130S/T21S/T23S/T284S/T78S/T85S/V143I/V157T/V162I/V163I/V188T)); test: Enzyme kinetic parameters of mutant ω-transaminase Ancata-101; assay type: biochemical
T1 construct: ancestral reconstruction Ancata-101
Experimental: as §1

[3] = target: T2, Aspergillus terreus ω-transaminase mutant Ancata-124 (D5E-A12Q-I17V-S20A-T21S-E22A-T23S-A42H-I77L-T78S-T85A-R90K-D96E-Q97E-E104D-T130S-R130K-I135L-138insN-V143I (Aspergillus terreus, UniProt Q0C8G1, A12Q/A195S/A246V/A313P/A42H/D153E/D5E/D96E/E104D/E22A/E248R/E323S/F250N/F258V/G292D/H210N/I135L/I17V/I295V/I77L/INS138N/INS325KS/L263M/M154V/M288K/N245D/N322E/N325S/Q236E/Q294K/Q97E/R131K/R266Q/R324A/R90K/S20A/T130S/T21S/T23S/T284S/T78S/T85A/V143I/V157T/V162I/V163I)); test: Enzyme kinetic parameters of mutant ω-transaminase Ancata-124; assay type: biochemical
T2 construct: ancestral reconstruction Ancata-124
Experimental: as §1

[4] = system: CC(=O)C(=O)O; test: Enzyme kinetic parameters of mutant ω-transaminase Ancata-101; assay type: biochemical, Aspergillus terreus; conditions: other: PBS 50 mM, pH 8.0, 0.01 mM PLP
[5] = system: C[C@@H](N)c1ccccc1; test: as above; assay type: biochemical, Aspergillus terreus; conditions: other: PBS 50 mM, pH 8.0, 0.01 mM PLP
[6] = system: CC(=O)C(=O)O; test: Enzyme kinetic parameters of mutant ω-transaminase Ancata-124; assay type: biochemical, Aspergillus terreus; conditions: other: PBS 50 mM, pH 8.0, 0.01 mM PLP, 25.0 °C
[7] = system: C[C@@H](N)c1ccccc1; test: as above; assay type: biochemical, Aspergillus terreus; conditions: other: PBS 50 mM, pH 8.0, 0.01 mM PLP, 25.0 °C

CC(=O)C(=O)O [pyruvate, pyruvic acid]
kcat (pyruvate) [1]: 0.50 ± 0.01 s⁻¹ | kcat/Km (pyruvate) [1]: 2220 M⁻¹ s⁻¹ | Km ([1]; read-out: Km (pyruvate)): 230 ± 20 µM | kcat (pyruvate) ([2]; PBS 50 mM, pH 8.0, 0.01 mM PLP): 1.50 ± 0.03 s⁻¹ | kcat/Km (pyruvate) ([2]; PBS 50 mM, pH 8.0, 0.01 mM PLP): 1300 M⁻¹ s⁻¹ | catalytic efficiency for pyruvic acid compared with wild type ([2]; in words, versus wild type): lower than that of the wild type | kcat (pyruvate) ([3]; PBS 50 mM, pH 8.0, 0.01 mM PLP): 0.74 ± 0.03 s⁻¹ | kcat/Km (pyruvate) ([3]; PBS 50 mM, pH 8.0, 0.01 mM PLP): 790 M⁻¹ s⁻¹ | catalytic efficiency for pyruvic acid compared with wild type ([3]; in words, versus wild type): lower than that of the wild type

C[C@@H](N)c1ccccc1 [α-MBA, (R)-(+)-α-methylbenzylamine]
Km (α-MBA) compared with wild type ([2]; in words, versus wild type): slightly higher than that of the wild type | Km (α-MBA) compared with wild type ([3]; in words, versus wild type): slightly higher than that of the wild type

Aspergillus terreus ω-transaminase mutant Ancata-101 (D5E-A12Q-I17V-S20A-T21S-E22A-T23S-A42H-I77L-T78S-T85S-L87M-R90K-D96E-Q97E-E104D-T130S-R131K-D134E-I135L-138insN-V143I-D153E-V157T-V162I-V163I-A174S-I175M-V188T-A195S-H210N-Q236E-N245D-A246V-E248R-F250N-F258V-R266Q-T284S-M288K-G292D-Q294K-I295V-A313P-N322E-E323S-R324A-N325S-325insKKSG), SEQ ID NO. 4 (Aspergillus terreus NIH2624; A12Q/A174S/A195S/A246V/A313P/A42H/D134E/D153E/D5E/D96E/E104D/E22A/E248R/E323S/F250N/F258V/G292D/H210N/I135L/I175M/I17V/I295V/I77L/INS138N/INS325KKSG/L87M/M288K/N245D/N322E/N325S/Q236E/Q294K/Q97E/R131K)
Km [4]: 1150 ± 20 µM | Km [5]: 280 ± 30 µM

Aspergillus terreus ω-transaminase mutant Ancata-124 (D5E-A12Q-I17V-S20A-T21S-E22A-T23S-A42H-I77L-T78S-T85A-R90K-D96E-Q97E-E104D-T130S-R130K-I135L-138insN-V143I-D153E-M154V-V157T-V162I-V163I-A195S-H210N-Q236E-N245D-A246V-E248R-F250N-F258V-L263M-R266Q-T284S-M288K-G292D-Q294K-I295V-A313P-N322E-E323S-R324A-N325S-325insKS), SEQ ID NO. 6 (Aspergillus terreus NIH2624; A12Q/A195S/A246V/A313P/A42H/D153E/D5E/D96E/E104D/E22A/E248R/E323S/F250N/F258V/G292D/H210N/I135L/I17V/I295V/I77L/INS138N/INS325KS/L263M/M154V/M288K/N245D/N322E/N325S/Q236E/Q294K/Q97E/R131K/R266Q/R324A/)
Km [6]: 930 ± 10 µM | Km [7]: 280 ± 10 µM
